Assay results published in patent publication US12180187B2, “1-phenyl-5-azinylpyrazolyl-3-oxyalkyl acids and their use for controlling unwanted plant growth” (BAYER AKTIENGESELLSCHAFT, priority 2019, dated 2024).

Assays:
AMARE [1] = assay: Post-emergence action against AMARE, 1.28 kg/ha; assay type: in vivo, Amaranthus retroflexus; conditions: dosage 1280 g/ha, visual rating about 3 weeks after treatment vs untreated controls (100% = plants died)
Outline: (§1)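 Greenhouse pot test, sandy loam; weeds sprayed post-emergence at one-leaf stage (2–3 weeks after sowing) with WP or EC formulation plus 0.5% additive, 600 l/ha water. Visual rating after about 3 weeks versus untreated controls, 100% = plants dead, 0% = like control.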

VIOTR = assay: Pre-emergence action at 320 g/ha against VIOTR; assay type: in vivo, Viola tricolor; conditions: dosage 320 g/ha
Outline: (§2)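 Application: aqueous WP or EC with 0.5% additive on soil covering seeds, 600 l/ha. Read-out: visual percent damage after ~3 weeks in greenhouse, untreated pots as reference.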

AMARE [2] = assay: Pre-emergence action against AMARE, 1280 g/ha; assay type: in vivo, Amaranthus retroflexus; conditions: scored visually after about 3 weeks vs untreated controls (100% = plants have died)
Outline: (§3)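 Activity was scored visually as percent versus untreated controls about 3 weeks after treatment (100% = dead plants, 0% = control-like). Compounds, formulated as wettable powders or emulsion concentrates, were sprayed onto the covering soil over freshly sown seeds in sandy loam, with 0.5% additive and 600 L/ha water.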

STEME [3] = assay: Post-emergence action against STEME, 1.28 kg/ha; assay type: in vivo, Stellaria media; conditions: dosage 1280 g/ha, visual rating about 3 weeks after treatment vs untreated controls (100% = plants died)
Outline: as §1

ALOMY [4] = assay: Post-emergence action against ALOMY, 1.28 kg/ha; assay type: in vivo, Alopecurus myosuroides; conditions: dosage 1280 g/ha, visual rating about 3 weeks after treatment vs untreated controls
Outline: as §1

SETVI [5] = assay: Post-emergence action against SETVI, 1.28 kg/ha; assay type: in vivo, Setaria viridis; conditions: dosage 1280 g/ha, visual rating about 3 weeks after treatment vs untreated controls
Outline: as §1

VERPE [6] = assay: Pre-emergence action at 320 g/ha against VERPE; assay type: in vivo, Veronica persica; conditions: visual scoring after about 3 weeks vs untreated controls
Outline: as §2

MATIN [7] = assay: Pre-emergence action against MATIN, 1280 g/ha; assay type: in vivo, Tripleurospermum inodorum (Matricaria inodora); conditions: scored visually after about 3 weeks vs untreated controls (100% = plants have died)
Outline: as §3

LOLRI [8] = assay: Pre-emergence action at 320 g/ha against LOLRI; assay type: in vivo, Lolium rigidum; conditions: visual scoring after about 3 weeks vs untreated controls
Outline: as §2

MATIN [9] = assay: Post-emergence action against MATIN, 1.28 kg/ha; assay type: in vivo, Tripleurospermum inodorum (Matricaria inodora); conditions: dosage 1280 g/ha, visual rating about 3 weeks after treatment vs untreated controls (100% = plants died)
Outline: as §1

DIGSA [10] = assay: Post-emergence action against DIGSA, 1.28 kg/ha; assay type: in vivo, Digitaria sanguinalis; conditions: dosage 1280 g/ha, visual rating about 3 weeks after treatment vs untreated controls
Outline: as §1

ECHCG [11] = assay: Pre-emergence action against ECHCG, 1280 g/ha; assay type: in vivo, Echinochloa crus-galli; conditions: visual scoring after about 3 weeks vs untreated controls, 100% = plants have died, 0% = like control plants
Outline: as §3

DIGSA [12] = assay: Pre-emergence action at 320 g/ha against DIGSA; assay type: in vivo, Digitaria sanguinalis; conditions: visual scoring after about 3 weeks vs untreated controls
Outline: as §2

ABUTH [13] = assay: Post-emergence action against ABUTH, 1.28 kg/ha; assay type: in vivo, Abutilon theophrasti; conditions: dosage 1280 g/ha, visual rating about 3 weeks after treatment vs untreated controls (100% = plants died)
Outline: as §1

POLCO = assay: Pre-emergence action at 320 g/ha against POLCO; assay type: in vivo, Fallopia convolvulus (Polygonum convolvulus); conditions: visual scoring after about 3 weeks vs untreated controls
Outline: as §2

AMARE [14] = assay: Pre-emergence action at 320 g/ha against AMARE; assay type: in vivo, Amaranthus retroflexus; conditions: visual scoring after about 3 weeks vs untreated controls
Outline: as §2

KCHSC [15] = assay: Pre-emergence action against KCHSC, 1280 g/ha; assay type: in vivo, Bassia scoparia; conditions: scored visually after about 3 weeks vs untreated controls (100% = plants have died)
Outline: as §3

VERPE [16] = assay: Pre-emergence action against VERPE, 1280 g/ha; assay type: in vivo, Veronica persica; conditions: scored visually after about 3 weeks vs untreated controls (100% = plants have died)
Outline: as §3

SETVI [17] = assay: Pre-emergence action against SETVI, 1280 g/ha; assay type: in vivo, Setaria viridis; conditions: visual scoring after about 3 weeks vs untreated controls, 100% = plants have died, 0% = like control plants
Outline: as §3

KCHSC [18] = assay: Post-emergence action against KCHSC, 1.28 kg/ha; assay type: in vivo, Bassia scoparia; conditions: dosage 1280 g/ha, visual rating about 3 weeks after treatment vs untreated controls (100% = plants died)
Outline: as §1

ALOMY [19] = assay: Pre-emergence action against ALOMY, 1280 g/ha; assay type: in vivo, Alopecurus myosuroides; conditions: visual scoring after about 3 weeks vs untreated controls, 100% = plants have died, 0% = like control plants
Outline: as §3

POAAN [20] = assay: Post-emergence action against POAAN, 1.28 kg/ha; assay type: in vivo, Poa annua; conditions: dosage 1280 g/ha, visual rating about 3 weeks after treatment vs untreated controls
Outline: as §1

ECHGC = assay: Pre-emergence action at 320 g/ha against ECHGC; assay type: in vivo, Echinochloa crus-galli; conditions: visual scoring after about 3 weeks vs untreated controls
Outline: as §2

VERPE [21] = assay: Post-emergence action against VERPE, 1.28 kg/ha; assay type: in vivo, Veronica persica; conditions: dosage 1280 g/ha, visual rating about 3 weeks after treatment vs untreated controls (100% = plants died)
Outline: as §1

MATIN [22] = assay: Pre-emergence action at 320 g/ha against MATIN; assay type: in vivo, Tripleurospermum inodorum (Matricaria inodora); conditions: visual scoring after about 3 weeks vs untreated controls
Outline: as §2

STEME [23] = assay: Pre-emergence action against STEME, 1280 g/ha; assay type: in vivo, Stellaria media; conditions: scored visually after about 3 weeks vs untreated controls (100% = plants have died)
Outline: as §3

LOLRI [24] = assay: Post-emergence action against LOLRI, 1.28 kg/ha; assay type: in vivo, Lolium rigidum; conditions: dosage 1280 g/ha, visual rating about 3 weeks after treatment vs untreated controls
Outline: as §1

POAAN [25] = assay: Pre-emergence action against POAAN, 1280 g/ha; assay type: in vivo, Poa annua; conditions: visual scoring after about 3 weeks vs untreated controls, 100% = plants have died, 0% = like control plants
Outline: as §3

LOLRI [26] = assay: Pre-emergence action against LOLRI, 1280 g/ha; assay type: in vivo, Lolium rigidum; conditions: visual scoring after about 3 weeks vs untreated controls, 100% = plants have died, 0% = like control plants
Outline: as §3

ALOMY [27] = assay: Pre-emergence action at 320 g/ha against ALOMY; assay type: in vivo, Alopecurus myosuroides; conditions: scored visually after about 3 weeks vs untreated controls (100% = plants have died)
Outline: as §2

AVEFA = assay: Pre-emergence action at 320 g/ha against AVEFA; assay type: in vivo; conditions: visual scoring after about 3 weeks vs untreated controls
Outline: as §2

DIGSA [28] = assay: Pre-emergence action against DIGSA, 1280 g/ha; assay type: in vivo, Digitaria sanguinalis; conditions: visual scoring after about 3 weeks vs untreated controls, 100% = plants have died, 0% = like control plants
Outline: as §3

ABUTH [29] = assay: Pre-emergence action against ABUTH, 1280 g/ha; assay type: in vivo, Abutilon theophrasti; conditions: scored visually after about 3 weeks vs untreated controls (100% = plants have died)
Text: 1. Pre-Emergence Herbicidal Effect and Crop Plant Compatibility a) Seeds of mono- and dicotyledonous weed plants are placed in plastic pots in sandy loam soil (doubly sown with one species each of mono- or dicotyledonous weed plants per pot) and covered with soil. The compounds of the invention, formulated in the form of wettable powders (WP) or as emulsion concentrates (EC), are then applied onto the surface of the covering soil as aqueous suspension or emulsion with addition of 0.5% additive at a water application rate equivalent to 600 litres per hectare. After the treatment, the pots are placed in a greenhouse and kept under good growth conditions for the trial plants. After about 3 weeks, the effect of the preparations is scored visually in comparison with untreated controls as percentages. For example, 100% activity=the plants have died, 0% activity=like control plants. 1. Pre-Emergence Effectiveness Tables 1 to 12 below show the effects of selected compounds of the general formula (I) according to Tables 1 and 2 on various harmful plants and at an application rate corresponding to 1280 g/ha, which were obtained by the experimental procedure mentioned above.

ECHCG [30] = assay: Post-emergence action against ECHCG, 1.28 kg/ha; assay type: in vivo, Echinochloa crus-galli; conditions: dosage 1280 g/ha, visual rating about 3 weeks after treatment vs untreated controls
Outline: as §1

SETVI [31] = assay: Pre-emergence action at 320 g/ha against SETVI; assay type: in vivo, Setaria viridis; conditions: visual scoring after about 3 weeks vs untreated controls
Outline: as §2

O=C(COc1nn(-c2ccccc2F)c(-c2ccc(F)nc2)c1Br)OCCCl [VII-108]
Post-emergence action against AMARE (AMARE [1]): 100%
Pre-emergence action against VIOTR in % (VIOTR): 100%
Pre-emergence action against AMARE (AMARE [2]): 100%
Post-emergence action against STEME (STEME [3]): 100%
Post-emergence action against ALOMY (ALOMY [4]): 100%
Post-emergence action against SETVI (SETVI [5]): 90%
Pre-emergence action against VERPE in % (VERPE [6]): 100%
Pre-emergence action against MATIN (MATIN [7]): 100%
Pre-emergence action against LOLRI in % (LOLRI [8]): 100%
Post-emergence action against MATIN (MATIN [9]): 100%
Post-emergence action against DIGSA (DIGSA [10]): 100%
Pre-emergence action against ECHCG (ECHCG [11]): 100%
Pre-emergence action against DIGSA in % (DIGSA [12]): 100%
Post-emergence action against ABUTH (ABUTH [13]): 90%
Pre-emergence action against POLCO in % (POLCO): 100%
Pre-emergence action against AMARE in % (AMARE [14]): 100%
Pre-emergence action against KCHSC (KCHSC [15]): 90%
Pre-emergence action against VERPE (VERPE [16]): 100%
Pre-emergence action against SETVI (SETVI [17]): 100%
Post-emergence action against KCHSC (KCHSC [18]): 90%
Pre-emergence action against ALOMY (ALOMY [19]): 100%
Post-emergence action against POAAN (POAAN [20]): 100%
Pre-emergence action against ECHGC in % (ECHGC): 100%
Post-emergence action against VERPE (VERPE [21]): 100%
Pre-emergence action against MATIN in % (MATIN [22]): 100%
Pre-emergence action against STEME (STEME [23]): 100%
Post-emergence action against LOLRI (LOLRI [24]): 100%
Pre-emergence action against POAAN (POAAN [25]): 100%
Pre-emergence action against LOLRI (LOLRI [26]): 100%
Pre-emergence action at 320 g/ha against ALOMY in % (ALOMY [27]): 100%
Pre-emergence action against AVEFA in % (AVEFA): 80%
Pre-emergence action against DIGSA (DIGSA [28]): 100%
Pre-emergence action against ABUTH (ABUTH [29]): 90%
Post-emergence action against ECHCG (ECHCG [30]): 100%
Pre-emergence action against SETVI in % (SETVI [31]): 100%
